Laboratory results taken from patent publication US10093713B2, “GIP-GLP-1 dual agonist compounds and methods” (priority 2013, dated 2018).
Where two headings read alike, the source gives them in different places. *1 amine or outer side, *2 acyl side, *3 side chain or, on linkers, in order; H or OH if unused. Where a SMILES comes first, the peptide text is derived from it. Side-chain parts run from the residue outwards. [ ]: non-standard residue; d: D form. The star is where a group is joined. C20 diacid = O=C(O)CCCCCCCCCCCCCCCCCCC(=O)*; C18 diacid = O=C(O)CCCCCCCCCCCCCCCCC(=O)*; γGlu = O=C(O)[C@H](CCC(=O)[*:2])N[*:1]; AEEA = NCCOCCOCC(=O)O; Aib = CC(C)(N)C(=O)O

What was measured:
human GIP R = target: T1, human GIP R (Homo sapiens, UniProt P48546); assay: Human GIP receptor (GIP R) activity assay, cAMP induction (AlphaScreen) in HEK293 cells; type: cell-based; settings: read-out: hGIP-R cAMP EC50 average value
T1 construct: expressed in transfected cells
T1 sequence (P48546 22-466): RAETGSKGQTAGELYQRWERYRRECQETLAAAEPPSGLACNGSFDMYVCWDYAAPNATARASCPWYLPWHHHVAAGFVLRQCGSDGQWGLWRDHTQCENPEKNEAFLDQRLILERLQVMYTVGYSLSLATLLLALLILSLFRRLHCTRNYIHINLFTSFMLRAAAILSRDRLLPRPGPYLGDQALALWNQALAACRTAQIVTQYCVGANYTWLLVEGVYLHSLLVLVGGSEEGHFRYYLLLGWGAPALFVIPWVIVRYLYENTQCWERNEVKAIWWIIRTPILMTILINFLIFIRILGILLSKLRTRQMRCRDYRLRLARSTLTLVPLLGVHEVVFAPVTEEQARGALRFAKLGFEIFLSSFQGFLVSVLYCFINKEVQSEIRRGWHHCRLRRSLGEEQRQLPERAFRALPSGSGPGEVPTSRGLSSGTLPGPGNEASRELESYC
Summary of the method: (§1)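 Stable HEK293 clones expressing human GIP R or GLP-1 R, seeded 1 day before; cells washed in Tyrode's buffer (10 mM HEPES, pH 7.4), stimulated, then lysed. cAMP measured by AlphaScreen bead competition (1 h, room temperature, dark). EC50 = concentration giving half-maximal cAMP elevation, from curves of absolute cAMP (nM) vs log concentration.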

human GLP-1 R = target: T2, human GLP-1 R (Homo sapiens, UniProt P43220); assay: Human GLP-1 receptor (GLP-1 R) activity assay, cAMP induction (AlphaScreen) in HEK293 cells; type: cell-based; settings: read-out: hGLP1-R cAMP EC50 average value
T2 construct: expressed in transfected cells
T2 sequence (P43220 24-463): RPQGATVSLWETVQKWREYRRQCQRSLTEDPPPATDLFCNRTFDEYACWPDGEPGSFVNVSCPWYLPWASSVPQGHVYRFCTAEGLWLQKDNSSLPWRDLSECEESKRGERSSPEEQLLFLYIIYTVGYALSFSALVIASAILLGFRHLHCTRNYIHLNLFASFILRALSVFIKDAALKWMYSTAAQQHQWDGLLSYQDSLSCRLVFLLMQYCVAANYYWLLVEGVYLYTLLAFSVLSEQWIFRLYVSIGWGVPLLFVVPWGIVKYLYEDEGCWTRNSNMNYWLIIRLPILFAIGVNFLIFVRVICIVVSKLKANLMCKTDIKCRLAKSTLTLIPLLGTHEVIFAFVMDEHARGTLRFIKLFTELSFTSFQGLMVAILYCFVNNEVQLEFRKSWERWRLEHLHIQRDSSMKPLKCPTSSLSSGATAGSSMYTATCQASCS
Summary of the method: as §1

[1] = Table 2, HEK293 cells expressing human GIP R
[2] = Table 3, most comprehensive data
[3] = Table 2, HEK293 cells expressing human GLP-1 R
[4] = Table 2a, secondary assay study

EC50 (human GLP-1 R; [3])	Structure (SMILES)	EC50 (human GIP R; [1])	EC50 (human GIP R; [2])	EC50 (human GIP R; [4])	EC50 (human GLP-1 R; [4])
0.011 nM	CC[C@H](C)[C@H](NC(=O)[C@H](CO)NC(=O)[C@H](Cc1ccc(O)cc1)NC(=O)[C@H](CC(=O)O)NC(=O)[C@H](CO)NC(=O)[C@@H](NC(=O)[C@H](Cc1ccccc1)NC(=O)[C@@H](NC(=O)CNC(=O)[C@H](CCC(=O)O)NC(=O)C(C)(C)NC(=O)[C@@H](N)Cc1ccc(O)cc1)[C@@H](C)O)[C@@H](C)O)C(=O)N[C@@H](C)C(=O)N[C@@H](CC(C)C)C(=O)N[C@@H](CC(=O)O)C(=O)N[C@@H](CCCCN)C(=O)N[C@@H](CCCCNC(=O)COCCOCCNC(=O)COCCOCCNC(=O)CC[C@H](NC(=O)CCCCCCCCCCCCCCCCC(=O)O)C(=O)O)C(=O)N[C@@H](C)C(=O)N[C@@H](CCC(N)=O)C(=O)N[C@@H](CCCNC(=N)N)C(=O)N[C@@H](C)C(=O)N[C@@H](Cc1ccccc1)C(=O)N[C@H](C(=O)N[C@@H](CCC(=O)O)C(=O)N[C@@H](Cc1c[nH]c2ccccc12)C(=O)N[C@@H](CC(C)C)C(=O)N[C@H](C(=O)N[C@@H](C)C(=O)NC(C)(C)C(=O)N[C@@H](CCCCN)C(N)=O)C(C)C)C(C)C [Compound 21] (H-Y[Aib]EGTFTSDYSIALDKK([AEEA-AEEA-γGlu-C18 diacid])AQRAFVEWLVA[Aib]K-NH2)	0.0068 nM	0.007 nM	–	–
0.011 nM	CC[C@H](C)[C@H](NC(=O)[C@H](CO)NC(=O)[C@H](CC(C)C)NC(=O)[C@H](CC(=O)O)NC(=O)[C@H](CO)NC(=O)[C@@H](NC(=O)[C@H](Cc1ccccc1)NC(=O)[C@@H](NC(=O)CNC(=O)[C@H](CCC(=O)O)NC(=O)C(C)(C)NC(=O)[C@@H](N)Cc1ccc(O)cc1)[C@@H](C)O)[C@@H](C)O)C(=O)N[C@@H](C)C(=O)N[C@@H](CC(C)C)C(=O)N[C@@H](CCC(=O)O)C(=O)N[C@@H](CCCCN)C(=O)N[C@@H](CCCCNC(=O)COCCOCCNC(=O)COCCOCCNC(=O)CC[C@H](NC(=O)CCCCCCCCCCCCCCCCC(=O)O)C(=O)O)C(=O)N[C@@H](C)C(=O)N[C@@H](CCC(N)=O)C(=O)N[C@@H](CCCNC(=N)N)C(=O)N[C@@H](C)C(=O)N[C@@H](Cc1ccccc1)C(=O)N[C@H](C(=O)N[C@@H](CCC(=O)O)C(=O)N[C@@H](Cc1c[nH]c2ccccc12)C(=O)N[C@@H](CC(C)C)C(=O)N[C@@H](CCC(=O)O)C(=O)N[C@@H](C)C(=O)N[C@@H](CCC(N)=O)C(=O)N[C@@H](CCCCN)C(N)=O)C(C)C [Compound 24] (H-Y[Aib]EGTFTSDLSIALEKK([AEEA-AEEA-γGlu-C18 diacid])AQRAFVEWLEAQK-NH2)	–	0.26 nM	–	–
0.022 nM	CC[C@H](C)[C@H](NC(=O)[C@H](CO)NC(=O)[C@H](Cc1ccc(O)cc1)NC(=O)[C@H](CC(=O)O)NC(=O)[C@H](CO)NC(=O)[C@@H](NC(=O)[C@H](Cc1ccccc1)NC(=O)[C@@H](NC(=O)CNC(=O)[C@H](CCC(=O)O)NC(=O)C(C)(C)NC(=O)[C@@H](N)Cc1ccc(O)cc1)[C@@H](C)O)[C@@H](C)O)C(=O)N[C@@H](Cc1ccc(O)cc1)C(=O)N[C@@H](CC(C)C)C(=O)N[C@@H](CCC(=O)O)C(=O)N[C@@H](CCCCN)C(=O)N[C@@H](CCCCNC(=O)COCCOCCNC(=O)COCCOCCNC(=O)CC[C@H](NC(=O)CCCCCCCCCCCCCCCCC(=O)O)C(=O)O)C(=O)N[C@@H](C)C(=O)N[C@@H](CCC(N)=O)C(=O)N[C@@H](CCCNC(=N)N)C(=O)N[C@@H](C)C(=O)N[C@@H](Cc1ccccc1)C(=O)N[C@H](C(=O)N[C@@H](CCC(=O)O)C(=O)N[C@@H](Cc1c[nH]c2ccccc12)C(=O)N[C@@H](CC(C)C)C(=O)N[C@@H](CC(C)C)C(=O)N[C@@H](CCCNC(=N)N)C(=O)N[C@@H](C)C(N)=O)C(C)C [Compound 18] (H-Y[Aib]EGTFTSDYSIYLEKK([AEEA-AEEA-γGlu-C18 diacid])AQRAFVEWLLRA-NH2)	0.014 nM	–	–	–
–	CC[C@H](C)[C@H](NC(=O)[C@H](CO)NC(=O)[C@H](Cc1ccc(O)cc1)NC(=O)[C@H](CC(=O)O)NC(=O)[C@H](CO)NC(=O)[C@@H](NC(=O)[C@H](Cc1ccccc1)NC(=O)[C@@H](NC(=O)CNC(=O)[C@H](CCC(=O)O)NC(=O)C(C)(C)NC(=O)[C@@H](N)Cc1ccc(O)cc1)[C@@H](C)O)[C@@H](C)O)C(=O)N[C@@H](C)C(=O)N[C@@H](CC(C)C)C(=O)N[C@@H](CC(=O)O)C(=O)N[C@@H](CCCCN)C(=O)N[C@@H](CCCCNC(=O)COCCOCCNC(=O)COCCOCCNC(=O)CC[C@H](NC(=O)CCCCCCCCCCCCCCCCC(=O)O)C(=O)O)C(=O)N[C@@H](C)C(=O)N[C@@H](CCC(N)=O)C(=O)N[C@@H](CCCNC(=N)N)C(=O)N[C@@H](C)C(=O)N[C@@H](Cc1ccccc1)C(=O)N[C@H](C(=O)N[C@@H](CC(N)=O)C(=O)N[C@@H](Cc1c[nH]c2ccccc12)C(=O)N[C@@H](CC(C)C)C(=O)N[C@H](C(=O)N[C@@H](C)C(=O)NC(C)(C)C(=O)N[C@@H](CCCCN)C(=O)N1CCC[C@H]1C(=O)N[C@@H](CO)C(=O)N[C@@H](CO)C(=O)NCC(=O)N[C@@H](C)C(=O)N1CCC[C@H]1C(=O)N1CCC[C@H]1C(=O)N1CCC[C@H]1C(=O)N[C@@H](CO)C(N)=O)C(C)C)C(C)C [Compound 15]	–	–	0.006 nM	0.008 nM
–	CC[C@H](C)[C@H](NC(=O)[C@H](CO)NC(=O)[C@H](CC(C)C)NC(=O)[C@H](CC(=O)O)NC(=O)[C@H](CO)NC(=O)[C@@H](NC(=O)[C@H](Cc1ccccc1)NC(=O)[C@@H](NC(=O)CNC(=O)[C@H](CCC(=O)O)NC(=O)C(C)(C)NC(=O)[C@@H](N)Cc1ccc(O)cc1)[C@@H](C)O)[C@@H](C)O)C(=O)N[C@@H](C)C(=O)N[C@@H](CC(C)C)C(=O)N[C@@H](CC(=O)O)C(=O)N[C@@H](CCCCN)C(=O)N[C@@H](CCCCNC(=O)COCCOCCNC(=O)COCCOCCNC(=O)CC[C@H](NC(=O)CCCCCCCCCCCCCCCCC(=O)O)C(=O)O)C(=O)N[C@@H](C)C(=O)N[C@@H](CCC(N)=O)C(=O)N[C@@H](CCCNC(=N)N)C(=O)N[C@@H](C)C(=O)N[C@@H](Cc1ccccc1)C(=O)N[C@H](C(=O)N[C@@H](CC(N)=O)C(=O)N[C@@H](Cc1c[nH]c2ccccc12)C(=O)N[C@@H](CC(C)C)C(=O)N[C@H](C(=O)N[C@@H](C)C(=O)NC(C)(C)C(=O)N[C@@H](CCCCN)C(N)=O)C(C)C)C(C)C [Compound 21]	–	–	0.01 nM	0.01 nM

Structure (SMILES)	EC50 (human GLP-1 R; [3])	EC50 (human GIP R; [1])	EC50 (human GIP R; [2])	EC50 (human GIP R; [4])	EC50 (human GLP-1 R; [4])
CC[C@H](C)[C@H](NC(=O)[C@H](CO)NC(=O)[C@H](CC(C)C)NC(=O)[C@H](CC(=O)O)NC(=O)[C@H](CO)NC(=O)[C@@H](NC(=O)[C@H](Cc1ccccc1)NC(=O)[C@@H](NC(=O)CNC(=O)[C@H](CCC(=O)O)NC(=O)C(C)(C)NC(=O)[C@@H](N)Cc1ccc(O)cc1)[C@@H](C)O)[C@@H](C)O)C(=O)N[C@@H](C)C(=O)N[C@@H](CC(C)C)C(=O)N[C@@H](CCC(=O)O)C(=O)N[C@@H](CCCCN)C(=O)N[C@@H](CCCCNC(=O)COCCOCCNC(=O)COCCOCCNC(=O)CC[C@H](NC(=O)CCCCCCCCCCCCCCCCCCC(=O)O)C(=O)O)C(=O)N[C@@H](C)C(=O)N[C@@H](CCC(N)=O)C(=O)N[C@@H](CCCNC(=N)N)C(=O)N[C@@H](C)C(=O)N[C@@H](Cc1ccccc1)C(=O)N[C@H](C(=O)N[C@@H](CCC(=O)O)C(=O)N[C@@H](Cc1c[nH]c2ccccc12)C(=O)N[C@@H](CC(C)C)C(=O)N[C@@H](CC(C)C)C(=O)N[C@@H](C)C(=O)N[C@@H](CCC(N)=O)C(=O)NCC(=O)N1CCC[C@H]1C(=O)N[C@@H](CO)C(=O)N[C@@H](CO)C(=O)NCC(=O)N[C@@H](C)C(=O)N1CCC[C@H]1C(=O)N1CCC[C@H]1C(=O)N1CCC[C@H]1C(=O)N[C@@H](CO)C(N)=O)C(C)C [Compound 33] (H-Y[Aib]EGTFTSDLSIALEKK([AEEA-AEEA-γGlu-C20 diacid])AQRAFVEWLLAQGPSSGAPPPS-NH2)	0.014 nM	0.009 nM	0.009 nM	–	–
CC[C@H](C)[C@H](NC(=O)[C@H](CO)NC(=O)[C@H](Cc1ccc(O)cc1)NC(=O)[C@H](CC(=O)O)NC(=O)[C@H](CO)NC(=O)[C@@H](NC(=O)[C@H](Cc1ccccc1)NC(=O)[C@@H](NC(=O)CNC(=O)[C@H](CCC(=O)O)NC(=O)C(C)(C)NC(=O)[C@@H](N)Cc1ccc(O)cc1)[C@@H](C)O)[C@@H](C)O)C(=O)N[C@@H](C)C(=O)N[C@@H](CC(C)C)C(=O)N[C@@H](CC(=O)O)C(=O)N[C@@H](CCCCN)C(=O)N[C@@H](CCCCNC(=O)COCCOCCNC(=O)COCCOCCNC(=O)CC[C@H](NC(=O)CCCCCCCCCCCCCCCCC(=O)O)C(=O)O)C(=O)N[C@@H](C)C(=O)N[C@@H](CCC(N)=O)C(=O)N[C@@H](CCCNC(=N)N)C(=O)N[C@@H](C)C(=O)N[C@@H](Cc1ccccc1)C(=O)N[C@H](C(=O)N[C@@H](CC(N)=O)C(=O)N[C@@H](Cc1c[nH]c2ccccc12)C(=O)N[C@@H](CC(C)C)C(=O)N[C@H](C(=O)N[C@@H](C)C(=O)NC(C)(C)C(=O)N[C@@H](CCCCN)C(N)=O)C(C)C)C(C)C [Compound 19] (H-Y[Aib]EGTFTSDYSIALDKK([AEEA-AEEA-γGlu-C18 diacid])AQRAFVNWLVA[Aib]K-NH2)	0.014 nM	0.0073 nM	0.007 nM	–	–
